Data from US7250399B2, “Compounds having growth hormone releasing activity” (The Administrators of the Tulane Educational Fund, priority 1998, dated 2007).
Several values for one entry are separate records, joined by “and”; a condition that tells them apart may be missing. Equal entries are not always repeated.

Experiments:
Growth Hormone release [1] = test: In Vivo Release of Growth Hormone in Adult Beagle Dogs; design: unit not given here
Description: (§1) In vitro and in vivo activity of certain compounds were determined in rats and adult beagle dogs (in vivo activity only).

Growth Hormone release [2] = test: In Vitro Release of Growth Hormone in Rat; type: cell-based
Description: as §1

Growth Hormone release [3] = test: In Vivo GH Release in Rats (i.v., serum GH by RIA); design: species or system Sprague-Dawley rats; settings: i.v., serum 10 min after injection
Description: Immature female Sprague-Dawley rats were obtained from the Charles River Laboratories (Wilmington, Mass.). After arrival they were housed at 25° C. with a 14:10 hour light:dark cycle. Water and Purina rat chow were available ad libitum. Pups were kept with their mothers until 21 days of age.
Twenty-six day old rats, six rats per treatment group, were anesthetized interperitoneally with 50 mg/kg of pentobarbital 20 minutes prior to i.v. treatment with peptide. Normal saline with 0.1% gelatin was the vehicle for intravenous (i.v.) injections of the peptides. The anesthetized rats, weighing 55-65 grams, were injected i.v. with the quantity of grown hormone releasing compounds indicated in Table 3. Injection was made as a 0.1 mL solution into the jugular vein.
All animals were sacrificed by guillotine 10 minutes after final test injection (see Table 3). Trunk blood for the determination of blood GH levels was collected following decapitation. After allowing the blood to clot, it was centrifuged and the serum was separated from the clot. Serum was kept frozen until the day of sampling for radioimmunoassay (RIA) determination of growth hormone levels according to the following procedure, as developed by the National Institute of Arthritis, Diabetes and Digestive and Kidney Diseases (NIADDK).
Reagents are generally added to the RIA analysis tubes at a single sitting, at refrigerator temperature (about 4° C.) in the following sequence: • (a) buffer, • (b) “cold” (i.e., non-radioactive) standard or unknown serum sample to be analyzed, • (c) radio-iodinated growth hormone antigen, and • (d) growth hormone antiserum.
Reagent addition is generally carried out so that there is achieved a final RIA tube dilution of about 1:30,000 (antiserum to total liquid volume; vol:vol).
The mixed reagents are then typically incubated at room temperature (about 25° C.) for about 24 hours prior to addition of a second antibody (e.g., goat or rabbit anti-monkey gamma globulin serum) which binds to and causes precipitation of the complexed growth hormone antiserum. Precipitated contents of the RIA tubes are then analyzed for the number of counts in a specified period of time in a gamma scintillation counter. A standard curve is prepared by plotting number of radioactive counts versus growth hormone (GH) level. GH levels of unknown are then determined by reference to the standard curve.
Serum GH was measured by RIA with reagents provided by the National Hormone and Pituitary Program.
Serum levels in Tables 3 and 4 are recorded in ng/mL in terms of the rat GH standard of 0.61 International Units/mg (IU/mg). Data is recorded as the mean ±standard error of the mean (SEM). Statistical analysis was performed with Student's t-test. In Table 3, the results shown are the average of studies with six rats.

[4] = oral dose 4 mg/kg, time 6 hr, 4 mg/kg
[5] = oral dose 4F [sic] (mg/kg; F not explained), time 0 hr
[6] = oral dose 4F [sic] (mg/kg; F not explained), time 2 hr
[7] = oral dose 4F [sic] (mg/kg; F not explained), time 4 hr
[8] = oral dose 4F [sic] (mg/kg; F not explained), time 5 hr
[9] = compound at .0001 (dose unit not given)
[10] = compound at .0003 (dose unit not given)
[11] = compound at .001 (dose unit not given)
[12] = compound at .003 (dose unit not given)
[13] = compound at .01 (dose unit not given)
[14] = compound at 3 (dose unit not given)
[15] = compound at 10 (dose unit not given)
[16] = compound at 30 (dose unit not given)

With `CCN(CC)C(=O)C1CCCNC1` (stereo not drawn) [N,N-diethylnipecotamide] the “In Vivo Release of Growth Hormone in Adult Beagle Dogs” value (Growth Hormone release [1]; oral dose 4 mg/kg, time 0 hr, 4 mg/kg) was 1.7 and 0.9, the “In Vivo Release of Growth Hormone in Adult Beagle Dogs” value (Growth Hormone release [1]; oral dose 4 mg/kg, time 0.5 hr, 4 mg/kg) was 57 and 43 and the “In Vivo Release of Growth Hormone in Adult Beagle Dogs” value (Growth Hormone release [1]; oral dose 4 mg/kg, time 1 hr, 4 mg/kg) was 13 and 8. The “In Vivo Release of Growth Hormone in Adult Beagle Dogs” value (Growth Hormone release [1]; [4]) was 1.9 and 2.1, the “In Vivo Release of Growth Hormone in Adult Beagle Dogs” value (Growth Hormone release [1]; oral dose 4 mg/kg, time 8 hr, 4 mg/kg) was 1.7 and 0.9 and the “In Vivo Release of Growth Hormone in Adult Beagle Dogs” value (Growth Hormone release [1]; [5]) was 2.7. The “In Vivo Release of Growth Hormone in Adult Beagle Dogs” value (Growth Hormone release [1]; [6]) was 3.7, the “In Vivo Release of Growth Hormone in Adult Beagle Dogs” value (Growth Hormone release [1]; [7]) was 0.9 and the “In Vivo Release of Growth Hormone in Adult Beagle Dogs” value (Growth Hormone release [1]; [8]) was 10. For the same compound, the “In Vivo Release of Growth Hormone in Adult Beagle Dogs” value (Growth Hormone release [1]; oral dose 4F [sic] (mg/kg; F not explained), time 8 hr) was 3.5, the “In Vitro Release of Growth Hormone in Rat, GH” value (“In Vitro Release” for short) (Growth Hormone release [2]; [9]) was 418 ng/mL and the “In Vitro Release” value (Growth Hormone release [2]; [10]) was 395 ng/mL. The “In Vitro Release” value (Growth Hormone release [2]; [11]) was 489 ng/mL, the “In Vitro Release” value (Growth Hormone release [2]; [12]) was 536 ng/mL and the “In Vitro Release” value (Growth Hormone release [2]; [13]) was 642 ng/mL. For the same compound, the “In Vivo Release of Growth Hormone in Rat, GH” value (“In Vivo Release … GH” for short) (Growth Hormone release [3]; compound at 1 (dose unit not given)) was 928 ng/mL, the “In Vivo Release … GH” value (Growth Hormone release [3]; [14]) was 2070 ng/mL and the “In Vivo Release … GH” value (Growth Hormone release [3]; [15]) was 2896 ng/mL. For the same compound, the “In Vivo Release … GH” value (Growth Hormone release [3]; [16]) was 2186 ng/mL and the “In Vivo Release … GH” value (Growth Hormone release [3]; compound at .3 (dose unit not given)) was 221 ng/mL.
For “Aib-DTrp-DPro-3-methylpiperidinamide [DPro-m-methylpiperidine]”, the “In Vivo Release of Growth Hormone in Adult Beagle Dogs” value (Growth Hormone release [1]; oral dose 1 mg/kg, time 0 hr, 1 mg/kg) was 2, the “In Vivo Release of Growth Hormone in Adult Beagle Dogs” value (Growth Hormone release [1]; oral dose 1 mg/kg, time 0.5 hr, 1 mg/kg) was 53 and 63 and the “In Vivo Release of Growth Hormone in Adult Beagle Dogs” value (Growth Hormone release [1]; oral dose 1 mg/kg, time 1 hr, 1 mg/kg) was 19 and 32. The “In Vivo Release of Growth Hormone in Adult Beagle Dogs” value (Growth Hormone release [1]; oral dose 1 mg/kg, time 2 hr, 1 mg/kg) was 15 and 17, the “In Vivo Release of Growth Hormone in Adult Beagle Dogs” value (Growth Hormone release [1]; oral dose 1 mg/kg, time 3 hr, 1 mg/kg) was 9.6 and 13 and the “In Vivo Release of Growth Hormone in Adult Beagle Dogs” value (Growth Hormone release [1]; oral dose 1 mg/kg, time 5 hr, 1 mg/kg) was 2.2 and 1.5. For the same compound, the “In Vivo Release of Growth Hormone in Adult Beagle Dogs” value (Growth Hormone release [1]; oral dose 1 mg/kg, time 7 hr, 1 mg/kg) was 2.2 and 3, the “In Vivo Release of Growth Hormone in Adult Beagle Dogs” value (Growth Hormone release [1]; oral dose 1 mg/kg, time 8 hr, 1 mg/kg) was 1 and the “In Vivo Release of Growth Hormone in Adult Beagle Dogs” value (Growth Hormone release [1]; oral dose 2 mg/kg, time 0.5 hr) was 128. The “In Vivo Release of Growth Hormone in Adult Beagle Dogs” value (Growth Hormone release [1]; oral dose 2 mg/kg, time 1 hr) was 59, the “In Vivo Release of Growth Hormone in Adult Beagle Dogs” value (Growth Hormone release [1]; oral dose 2 mg/kg, time 2 hr) was 29 and the “In Vivo Release of Growth Hormone in Adult Beagle Dogs” value (Growth Hormone release [1]; oral dose 2 mg/kg, time 3 hr) was 12. The “In Vivo Release of Growth Hormone in Adult Beagle Dogs” value (Growth Hormone release [1]; oral dose 2 mg/kg, time 4 hr) was 8.9, the “In Vivo Release of Growth Hormone in Adult Beagle Dogs” value (Growth Hormone release [1]; oral dose 2 mg/kg, time 6 hr) was 3 and the “In Vivo Release of Growth Hormone in Adult Beagle Dogs” value (Growth Hormone release [1]; oral dose 2 mg/kg, time 7 hr) was 3. For the same compound, the “In Vivo Release of Growth Hormone in Adult Beagle Dogs” value (Growth Hormone release [1]; oral dose 4 mg/kg, time 1 hr) was 55, the “In Vivo Release of Growth Hormone in Adult Beagle Dogs” value (Growth Hormone release [1]; oral dose 4 mg/kg, time 2 hr, 4 mg/kg) was 50 and 54 and the “In Vivo Release of Growth Hormone in Adult Beagle Dogs” value (Growth Hormone release [1]; oral dose 4 mg/kg, time 3 hr, 4 mg/kg) was 52 and 53. For the same compound, the “In Vivo Release of Growth Hormone in Adult Beagle Dogs” value (Growth Hormone release [1]; oral dose 4 mg/kg, time 4 hr, 4 mg/kg) was 20 and 34, the “In Vivo Release of Growth Hormone in Adult Beagle Dogs” value (Growth Hormone release [1]; [4]) was 11 and the “In Vivo Release of Growth Hormone in Adult Beagle Dogs” value (Growth Hormone release [1]; oral dose 4 mg/kg, time 7 hr, 4 mg/kg) was 11. The “In Vivo Release of Growth Hormone in Adult Beagle Dogs” value (Growth Hormone release [1]; [5]) was 1.4, the “In Vivo Release of Growth Hormone in Adult Beagle Dogs” value (Growth Hormone release [1]; oral dose 4F [sic] (mg/kg; F not explained), time 0.5 hr) was 72 and the “In Vivo Release of Growth Hormone in Adult Beagle Dogs” value (Growth Hormone release [1]; oral dose 4F [sic] (mg/kg; F not explained), time 1 hr) was 84. The “In Vivo Release of Growth Hormone in Adult Beagle Dogs” value (Growth Hormone release [1]; [6]) was 18, the “In Vivo Release of Growth Hormone in Adult Beagle Dogs” value (Growth Hormone release [1]; oral dose 4F [sic] (mg/kg; F not explained), time 3 hr) was 4.7 and the “In Vivo Release of Growth Hormone in Adult Beagle Dogs” value (Growth Hormone release [1]; [7]) was 3.5. The “In Vivo Release of Growth Hormone in Adult Beagle Dogs” value (Growth Hormone release [1]; [8]) was 1.4, the “In Vitro Release” value (Growth Hormone release [2]; [9]) was 434 ng/mL and the “In Vitro Release” value (Growth Hormone release [2]; [10]) was 458 ng/mL. For the same compound, the “In Vitro Release” value (Growth Hormone release [2]; [11]) was 633 ng/mL, the “In Vitro Release” value (Growth Hormone release [2]; [12]) was 837 ng/mL and the “In Vitro Release” value (Growth Hormone release [2]; [13]) was 968 ng/mL. For the same compound, the “In Vivo Release … GH” value (Growth Hormone release [3]; [14]) was 832 ng/mL, the “In Vivo Release … GH” value (Growth Hormone release [3]; [15]) was 1557 ng/mL and the “In Vivo Release … GH” value (Growth Hormone release [3]; [16]) was 1570 ng/mL. For the same compound, the “In Vivo Release … GH” value (Growth Hormone release [3]; compound at 100 (dose unit not given)) was 1762 ng/mL.
